Results on two molecules are retold here after ChEMBL document CHEMBL4507297, “Data for DCP probe PF-04457845” (2021).

Data set [1] addresses GABA-A receptor; anion channel (Rattus norvegicus) (UniProt O09028+P15431+P18506+P18508+P19969+P20236+P23574+P23576+P28471+P28473+P30191+P62813+P63079+P63138+Q91ZM7+Q9ES14). Particulars: Compound concentration 10.0 uM; call rule not given here.
Data set [2] addresses Histamine H3 receptor (Homo sapiens) (UniProt Q9Y5N1). The data set is described as follows: H3 (h) CEREP ligand profiling. Particulars: Compound concentration 10.0 uM.
Data set [3] concerns the target T1, 5-hydroxytryptamine receptor 2A (Homo sapiens, UniProt P28223). The data set is described as follows: 5-HT2A (h) (agonist site) CEREP ligand profiling.
Data set [4] has as its target 5-hydroxytryptamine receptor 2B (Homo sapiens, UniProt P41595). Kind of data set: 5-HT2B (h) (agonist site) CEREP ligand profiling. Particulars: Compound concentration 10.0 uM.
In data set [5] the target is Glutamate [NMDA] receptor (Homo sapiens) (UniProt Q05586+Q12879+Q13224+O15399+O60391+Q14957+Q8TCU5). The data set is described as follows: NMDA CEREP ligand profiling. To be noted: Compound concentration 10.0 uM. The data set is classed as protein-complex assay.
The target in data set [6] is High affinity choline transporter 1 (Homo sapiens) (UniProt Q9GZV3). Kind of data set: Choline transporter (h) (CHT1) CEREP ligand profiling. To be noted: Compound concentration 10.0 uM.
Data set [7] deals with Mu-type opioid receptor (Homo sapiens) (UniProt P35372). The data set is described as follows: mu (h) (MOP) (agonist site) CEREP ligand profiling. To be noted: Compound concentration 10.0 uM.
Data set [8] addresses Ca2+ channel (L, DHP site); voltage-gated L-type calcium channel (Homo sapiens, UniProt O60840+Q01668+Q13698+Q13936). Kind of data set: Ca2+ channel (L, DHP site) CEREP ligand profiling. The class given is protein assay. To be noted: compound concentration 10 uM.
Data set [9] concerns the target Na+ channel (site 2); sodium channel alpha subunit (Homo sapiens, UniProt P35498+P35499+Q01118+Q14524+Q15858+Q99250+Q9NY46+Q9UI33+Q9UQD0+Q9Y5Y9). Kind of data set: Na+ channel (site 2) CEREP ligand profiling. The data set is classed as protein assay. To be noted: compound concentration 10 uM.
Data set [10] addresses 5-hydroxytryptamine receptor 2C (Homo sapiens, UniProt P28335). The data set is described as follows: GPCRScan assay: inhibition of 5-HT2C. Also noted: radioligand conc. used [nm] 1.0 – 2.5, parental cells HEK T.
Data set [11] deals with Alpha-1D adrenergic receptor (Homo sapiens) (UniProt P25100). Particulars: Compound concentration 10.0 uM.
The target in data set [12] is T1, 5-hydroxytryptamine receptor 2A. The data set is described as follows: GPCRScan assay: inhibition of 5-HT2A. More on the design: radioligand conc. used [nm] 1.2 – 2.4, parental cells HEKT.
For data set [13], the target named is T2, GABA-A receptor; anion channel (Homo sapiens) (UniProt P14867+P47870+P18507+P28472+P48169+Q99928+Q9UN88+P34903+O00591+O14764+Q8N1C3+P18505+P78334+P47869+P31644+Q16445). The data set is described as follows: BZD (central) CEREP ligand profiling. The data set is classed as protein-complex assay. To be noted: Compound concentration 10.0 uM.
The target in data set [14] is Histamine H2 receptor (Homo sapiens) (UniProt P25021). Kind of data set: H2 (h) CEREP ligand profiling. To be noted: Compound concentration 10.0 uM.
Data set [15] addresses 5-hydroxytryptamine receptor 7 (Homo sapiens) (UniProt P34969). The data set is described as follows: 5-HT7 (h) CEREP ligand profiling. To be noted: Compound concentration 10.0 uM.
Data set [16] has as its target Alpha-2C adrenergic receptor (Homo sapiens, UniProt P18825). The data set is described as follows: GPCRScan assay: inhibition of Alpha2C. Also noted: radioligand conc. used [nm] 0.5 – 1.0, parental cells stable MDCK.
Data set [17] deals with T3, 5-hydroxytryptamine receptor 2C (Homo sapiens) (UniProt P28335).
T3 sequence (whole entry): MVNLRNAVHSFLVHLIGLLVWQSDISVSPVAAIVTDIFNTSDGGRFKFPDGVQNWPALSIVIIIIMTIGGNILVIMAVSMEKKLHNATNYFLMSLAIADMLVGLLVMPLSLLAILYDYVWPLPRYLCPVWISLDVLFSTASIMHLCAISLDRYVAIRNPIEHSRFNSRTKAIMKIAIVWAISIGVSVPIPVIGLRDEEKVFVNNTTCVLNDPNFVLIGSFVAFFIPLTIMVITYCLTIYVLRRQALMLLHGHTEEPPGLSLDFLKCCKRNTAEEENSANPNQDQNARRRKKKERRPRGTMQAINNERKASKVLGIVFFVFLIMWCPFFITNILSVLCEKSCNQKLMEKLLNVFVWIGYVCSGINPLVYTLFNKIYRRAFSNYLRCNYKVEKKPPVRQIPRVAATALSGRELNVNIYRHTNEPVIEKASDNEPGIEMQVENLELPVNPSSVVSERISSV
Kind of data set: 5-HT2C (h) (agonist site) CEREP ligand profiling. Particulars: Compound concentration 10.0 uM.

Data set [18] concerns the target Beta-3 adrenergic receptor (Homo sapiens) (UniProt P13945). Particulars: Compound concentration 10.0 uM.
Data set [19] has as its target Alpha-1A adrenergic receptor (Homo sapiens) (UniProt P35348). Particulars: Compound concentration 10.0 uM.
Data set [20] addresses T4, 5-hydroxytryptamine receptor 3A (Homo sapiens) (UniProt P46098).
T4 sequence (whole entry): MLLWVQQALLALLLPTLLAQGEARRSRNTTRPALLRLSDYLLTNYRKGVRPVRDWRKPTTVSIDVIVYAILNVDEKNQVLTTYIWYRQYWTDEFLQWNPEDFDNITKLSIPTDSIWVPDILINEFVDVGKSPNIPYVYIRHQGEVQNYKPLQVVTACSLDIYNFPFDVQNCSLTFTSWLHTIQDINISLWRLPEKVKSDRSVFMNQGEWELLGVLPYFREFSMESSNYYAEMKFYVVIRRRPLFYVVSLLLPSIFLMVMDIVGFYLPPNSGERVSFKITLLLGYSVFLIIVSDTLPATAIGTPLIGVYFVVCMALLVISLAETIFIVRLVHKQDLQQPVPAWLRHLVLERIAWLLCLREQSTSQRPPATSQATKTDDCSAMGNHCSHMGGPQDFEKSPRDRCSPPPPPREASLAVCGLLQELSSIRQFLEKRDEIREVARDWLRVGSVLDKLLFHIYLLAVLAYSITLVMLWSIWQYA
Kind of data set: 5-HT3 (h) CEREP ligand profiling. Particulars: Compound concentration 10.0 uM.

Data set [21] can be described thus: CI channel CEREP ligand profiling.
The target of data set [22] is Voltage-dependent N-type calcium channel subunit alpha-1B (Homo sapiens) (UniProt Q00975). Kind of data set: Ca2+ channel (N) CEREP ligand profiling. To be noted: Compound concentration 10.0 uM.
In data set [23] the target is Alpha-2B adrenergic receptor (Homo sapiens) (UniProt P18089). Particulars: Compound concentration 10.0 uM.
Data set [24] has as its target T2, GABA-A receptor; anion channel (Homo sapiens). The data set is described as follows: GABAA CEREP ligand profiling. The data set is classed as protein-complex assay. Particulars: Compound concentration 10.0 uM.
A short description of data set [25]: GPCRScan assay: inhibition of GABA/PBR. More on the design: species or system Rattus norvegicus; radioligand conc. used [nm] 0.3 – 2.0, parental cells brain tissue.
For data set [26], the target named is 5-hydroxytryptamine receptor 1B (Homo sapiens) (UniProt P28222). The data set is described as follows: 5-HT1B CEREP ligand profiling. To be noted: Compound concentration 10.0 uM.
For data set [27], the target named is Histamine H1 receptor (Homo sapiens) (UniProt P35367). Kind of data set: H1 (h) CEREP ligand profiling. Particulars: Compound concentration 10.0 uM.
Data set [28] addresses 5-hydroxytryptamine receptor 4 (Homo sapiens) (UniProt Q13639). The data set is described as follows: 5-HT4e (h) CEREP ligand profiling. To be noted: Compound concentration 10.0 uM.
In data set [29] the target is Vascular endothelial growth factor receptor 1 (Homo sapiens) (UniProt P17948). Kind of data set: FLT-1 (h) (VEGFR1) CEREP ligand profiling. To be noted: Compound concentration 10.0 uM.
Data set [30] deals with D(1A) dopamine receptor (Homo sapiens) (UniProt P21728). Kind of data set: D1 (h) CEREP ligand profiling. To be noted: Compound concentration 10.0 uM.

SMILES strings stand for the structures.

T1 sequence (P28223 whole entry): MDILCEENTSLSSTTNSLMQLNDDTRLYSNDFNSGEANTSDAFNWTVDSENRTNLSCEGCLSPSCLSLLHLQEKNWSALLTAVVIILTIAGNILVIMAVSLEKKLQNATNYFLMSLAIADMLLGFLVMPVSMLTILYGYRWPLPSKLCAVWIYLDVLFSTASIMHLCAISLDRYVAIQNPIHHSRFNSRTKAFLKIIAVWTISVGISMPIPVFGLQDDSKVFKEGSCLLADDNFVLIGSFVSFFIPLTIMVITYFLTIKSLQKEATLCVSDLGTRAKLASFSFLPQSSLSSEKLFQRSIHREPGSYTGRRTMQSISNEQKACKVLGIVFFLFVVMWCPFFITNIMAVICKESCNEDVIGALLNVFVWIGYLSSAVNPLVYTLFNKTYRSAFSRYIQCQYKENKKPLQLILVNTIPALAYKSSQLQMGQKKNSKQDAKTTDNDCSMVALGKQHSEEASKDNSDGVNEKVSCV
Histamine H3 receptor (Homo sapiens), sequence (Q9Y5N1 whole entry): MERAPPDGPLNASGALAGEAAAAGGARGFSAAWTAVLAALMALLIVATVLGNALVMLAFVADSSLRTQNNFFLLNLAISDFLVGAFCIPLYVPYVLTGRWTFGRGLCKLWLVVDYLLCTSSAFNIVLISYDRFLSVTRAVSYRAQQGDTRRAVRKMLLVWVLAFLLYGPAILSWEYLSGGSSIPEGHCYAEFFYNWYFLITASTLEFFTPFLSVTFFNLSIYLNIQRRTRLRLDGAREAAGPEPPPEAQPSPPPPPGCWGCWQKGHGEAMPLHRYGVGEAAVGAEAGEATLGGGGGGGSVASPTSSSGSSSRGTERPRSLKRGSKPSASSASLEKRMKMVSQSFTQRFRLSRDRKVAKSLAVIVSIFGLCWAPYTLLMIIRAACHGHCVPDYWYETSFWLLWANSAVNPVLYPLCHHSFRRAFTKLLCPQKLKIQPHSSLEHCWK
5-hydroxytryptamine receptor 7 (Homo sapiens), sequence (P34969 whole entry): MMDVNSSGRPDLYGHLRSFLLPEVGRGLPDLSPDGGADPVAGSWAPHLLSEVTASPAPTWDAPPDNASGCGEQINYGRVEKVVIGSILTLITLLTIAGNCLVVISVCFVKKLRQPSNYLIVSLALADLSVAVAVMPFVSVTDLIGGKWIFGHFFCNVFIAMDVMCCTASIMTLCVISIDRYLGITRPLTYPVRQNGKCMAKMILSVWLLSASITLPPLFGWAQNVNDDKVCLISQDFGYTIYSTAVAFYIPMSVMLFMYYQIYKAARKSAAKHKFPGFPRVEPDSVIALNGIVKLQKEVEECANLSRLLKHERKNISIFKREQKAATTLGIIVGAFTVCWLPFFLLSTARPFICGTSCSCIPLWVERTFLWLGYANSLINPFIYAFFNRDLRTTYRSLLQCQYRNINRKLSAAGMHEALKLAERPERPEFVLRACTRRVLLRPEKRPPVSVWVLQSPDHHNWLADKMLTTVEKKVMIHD
Vascular endothelial growth factor receptor 1 (Homo sapiens), sequence (P17948 whole entry): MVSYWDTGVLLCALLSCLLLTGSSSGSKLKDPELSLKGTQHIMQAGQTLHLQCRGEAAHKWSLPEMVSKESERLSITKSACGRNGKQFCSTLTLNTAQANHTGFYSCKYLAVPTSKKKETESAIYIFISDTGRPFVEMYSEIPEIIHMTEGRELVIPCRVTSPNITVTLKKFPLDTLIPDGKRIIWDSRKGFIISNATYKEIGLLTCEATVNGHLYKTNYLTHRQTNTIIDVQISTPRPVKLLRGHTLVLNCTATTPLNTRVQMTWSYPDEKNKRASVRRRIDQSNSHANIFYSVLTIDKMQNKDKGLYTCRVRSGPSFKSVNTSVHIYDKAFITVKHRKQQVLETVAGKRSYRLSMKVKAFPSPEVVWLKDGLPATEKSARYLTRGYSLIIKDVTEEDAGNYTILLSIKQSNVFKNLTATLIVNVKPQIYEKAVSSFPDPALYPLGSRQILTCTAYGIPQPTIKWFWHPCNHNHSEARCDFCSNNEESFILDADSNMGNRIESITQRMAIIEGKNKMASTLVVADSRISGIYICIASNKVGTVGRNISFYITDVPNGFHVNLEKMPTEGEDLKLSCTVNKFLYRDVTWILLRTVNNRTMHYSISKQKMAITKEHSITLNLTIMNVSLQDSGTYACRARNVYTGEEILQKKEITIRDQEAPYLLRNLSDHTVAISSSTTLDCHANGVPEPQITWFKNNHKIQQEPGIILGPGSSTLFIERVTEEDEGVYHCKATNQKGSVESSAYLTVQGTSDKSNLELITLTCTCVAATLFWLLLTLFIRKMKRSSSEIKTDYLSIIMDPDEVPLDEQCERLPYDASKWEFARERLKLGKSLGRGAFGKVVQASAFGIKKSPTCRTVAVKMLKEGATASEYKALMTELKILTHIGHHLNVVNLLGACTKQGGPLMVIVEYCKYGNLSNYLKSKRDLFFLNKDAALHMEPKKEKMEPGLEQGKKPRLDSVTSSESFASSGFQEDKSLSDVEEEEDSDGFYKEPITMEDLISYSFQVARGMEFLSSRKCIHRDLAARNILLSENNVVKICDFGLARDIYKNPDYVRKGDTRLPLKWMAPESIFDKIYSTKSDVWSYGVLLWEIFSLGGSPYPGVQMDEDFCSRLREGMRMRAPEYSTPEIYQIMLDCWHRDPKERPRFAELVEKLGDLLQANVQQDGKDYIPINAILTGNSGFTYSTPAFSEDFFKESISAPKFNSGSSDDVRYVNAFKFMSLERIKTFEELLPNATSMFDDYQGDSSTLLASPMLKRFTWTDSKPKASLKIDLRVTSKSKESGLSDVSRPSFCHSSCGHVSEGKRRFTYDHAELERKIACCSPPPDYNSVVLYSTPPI
Alpha-1A adrenergic receptor (Homo sapiens), sequence (P35348 whole entry): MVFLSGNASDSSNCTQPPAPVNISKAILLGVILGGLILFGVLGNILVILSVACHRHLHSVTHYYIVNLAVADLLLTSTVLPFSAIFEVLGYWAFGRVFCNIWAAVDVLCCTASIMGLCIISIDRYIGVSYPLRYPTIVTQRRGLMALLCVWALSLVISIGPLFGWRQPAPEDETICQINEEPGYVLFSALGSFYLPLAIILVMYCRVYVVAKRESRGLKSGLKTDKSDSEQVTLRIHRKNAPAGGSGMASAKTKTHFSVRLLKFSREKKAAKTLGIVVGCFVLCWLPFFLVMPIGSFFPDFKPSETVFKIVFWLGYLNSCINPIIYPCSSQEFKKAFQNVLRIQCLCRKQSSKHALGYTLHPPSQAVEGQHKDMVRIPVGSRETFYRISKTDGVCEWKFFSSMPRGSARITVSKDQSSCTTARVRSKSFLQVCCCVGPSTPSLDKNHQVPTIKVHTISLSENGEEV
Histamine H2 receptor (Homo sapiens), sequence (P25021 whole entry): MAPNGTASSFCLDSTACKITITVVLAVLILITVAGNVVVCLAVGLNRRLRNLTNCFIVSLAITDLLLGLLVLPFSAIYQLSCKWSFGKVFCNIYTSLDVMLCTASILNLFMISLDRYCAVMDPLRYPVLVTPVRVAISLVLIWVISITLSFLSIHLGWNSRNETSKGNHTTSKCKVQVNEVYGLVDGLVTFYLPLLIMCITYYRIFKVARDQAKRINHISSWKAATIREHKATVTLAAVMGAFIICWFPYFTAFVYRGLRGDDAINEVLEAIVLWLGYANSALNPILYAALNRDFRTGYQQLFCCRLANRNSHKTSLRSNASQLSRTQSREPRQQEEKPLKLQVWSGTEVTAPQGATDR
5-hydroxytryptamine receptor 2B, sequence (P41595 whole entry): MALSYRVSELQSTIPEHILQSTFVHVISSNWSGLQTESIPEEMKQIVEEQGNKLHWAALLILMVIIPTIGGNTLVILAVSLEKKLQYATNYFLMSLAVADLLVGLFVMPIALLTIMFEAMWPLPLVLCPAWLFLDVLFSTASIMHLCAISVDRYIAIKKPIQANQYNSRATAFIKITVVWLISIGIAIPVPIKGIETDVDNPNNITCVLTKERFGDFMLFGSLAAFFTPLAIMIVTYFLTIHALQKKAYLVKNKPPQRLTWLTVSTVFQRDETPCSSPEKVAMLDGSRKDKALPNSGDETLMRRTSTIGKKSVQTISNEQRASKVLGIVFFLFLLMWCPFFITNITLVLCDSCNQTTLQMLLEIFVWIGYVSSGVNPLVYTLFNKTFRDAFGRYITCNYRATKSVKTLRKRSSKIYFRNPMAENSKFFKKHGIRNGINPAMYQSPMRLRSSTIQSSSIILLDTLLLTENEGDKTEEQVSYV
D(1A) dopamine receptor (Homo sapiens), sequence (P21728 whole entry): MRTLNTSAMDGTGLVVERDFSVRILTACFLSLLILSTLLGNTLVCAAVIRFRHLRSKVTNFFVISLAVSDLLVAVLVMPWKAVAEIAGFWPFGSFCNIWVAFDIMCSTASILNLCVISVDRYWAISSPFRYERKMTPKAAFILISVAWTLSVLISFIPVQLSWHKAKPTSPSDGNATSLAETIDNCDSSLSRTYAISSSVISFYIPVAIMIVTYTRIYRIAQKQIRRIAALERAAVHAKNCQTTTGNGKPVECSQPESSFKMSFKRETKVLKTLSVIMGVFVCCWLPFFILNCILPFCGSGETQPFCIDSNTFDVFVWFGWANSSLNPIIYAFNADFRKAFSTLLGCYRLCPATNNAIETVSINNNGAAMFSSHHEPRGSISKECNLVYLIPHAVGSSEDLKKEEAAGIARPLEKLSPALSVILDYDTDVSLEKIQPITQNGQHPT
5-hydroxytryptamine receptor 4 (Homo sapiens), sequence (Q13639 whole entry): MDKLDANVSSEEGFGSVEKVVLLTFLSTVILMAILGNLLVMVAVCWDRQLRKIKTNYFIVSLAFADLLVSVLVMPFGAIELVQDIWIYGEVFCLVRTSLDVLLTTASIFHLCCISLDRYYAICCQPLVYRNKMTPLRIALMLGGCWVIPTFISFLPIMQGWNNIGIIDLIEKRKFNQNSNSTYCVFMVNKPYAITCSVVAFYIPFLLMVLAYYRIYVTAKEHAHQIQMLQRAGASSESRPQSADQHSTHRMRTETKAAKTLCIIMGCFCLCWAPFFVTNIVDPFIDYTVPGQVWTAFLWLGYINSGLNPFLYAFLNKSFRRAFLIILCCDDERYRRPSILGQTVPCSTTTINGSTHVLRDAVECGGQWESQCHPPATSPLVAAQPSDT

Turning to `O=C(Nc1cccnn1)N1CC(C/C=C/c2cncc(Oc3ccc(C(F)(F)F)cn3)n2)C1`, the inhibition in [1] was 23.7%.
As to `O=C(Nc1cccnn1)N1CCC(=Cc2cccc(Oc3ccc(C(F)(F)F)cn3)c2)CC1`, the inhibition in [2] was 10%; in data set [3] (Compound concentration 10.0 uM), 57%; in [4], 35%; in [5], -3%; in [6] it was 18%; in [7], 3%. The inhibition in data set [11] is 3.84%; in data set [13], 15%; in data set [14], -6%; in [15], 7%; in [17], -3%; in data set [18] it was 0.69%. Further, the inhibition was 10.3% in [19]; -8% in data set [20]; 78% in data set [21] (Compound concentration 10.0 uM); -5% in data set [22]; 40% in data set [23]; -4% in [24]. Also, the inhibition is -3% in data set [26]; -1% in [27]; -8% in data set [28]; 4% in [29]; 3% in [30]. Also, the Ki amounted to 1.6 µM in data set [3]; 1.66 µM in [10]; 0.249 µM in data set [12]; 0.596 µM in data set [16]; 3 µM in [21]; 1.14 µM in data set [25]. In addition, the inhibition at 10 µM was 11% (not active) in data set [8] and 13% (not active) in data set [9]. Also, the pKi in [25] amounted to 5.94.

Broadly, the inhibition is the drop in the measured response relative to a control, in per cent. The term Ki denotes the equilibrium dissociation constant of an inhibitor or competing ligand from its target. A word on the pKi: it is the negative decadic logarithm of the Ki, by convention in mol/L.
